The results in this text go back to US4017534A, “16-Fluoro-11-deoxy-13-dihydro-prostaglandin” (American Cyanamid Company, priority 1975, dated 1977).

Each structure is given as a SMILES string. Read-outs that look alike come from different tables or passages of the source.

The subject of data set [1] is bronchospasms elicited by 5-hydroxytryptamine. The data set can be described thus: Bronchodilator activity (intraduodenal route) against 5-hydroxytryptamine. Format: in vivo, guinea pigs. Also on record: key: 0: no activity; +: minimal activity; ++++: maximum activity. As to conditions: intraduodenal dose 3.2 mg./kg. As to the method:
(§1) The compounds of this invention are useful as bronchodilators for the treatment of asthma and chronic bronchitis. Bronchodilator activity is determined in guinea pigs against bronchospasms elicited by intravenous injections of 5-hydroxytryptamine, histamine or acetylcholine by the Konzett procedure. [See J. Lulling, P. Lievens, F. El Sayed and J. Prignot, Arzneimittel-Forschung, 18, 995 (1968).]
(§2) In Table A' which follows bronchodilator activity for representative compounds of this invention against one or more of three spasmogenic agents is reported. In this assay candidate compounds are suspended in 10% gum arabic solution and the suspension is administered by the intraduodenal route. The activity of the compound at any one dose is then investigated throughout the following hour (see above-cited reference, J. Lulling et al.). Potency is then reported as O, +, ++, +++, or ++++, wherein 0 represents no activity, + minimal activity and ++++ maximum activity.

Data set [2] deals with bronchospasms elicited by acetylcholine. Kind of data set: Bronchodilator activity (intraduodenal route) against acetylcholine. Format: in vivo, guinea pigs. The note with it: intraduodenal dose 3.2 mg./kg. Also on record: key: 0: no activity; +: minimal activity; ++++: maximum activity. Here is the method:
as §1, §2

The test system of data set [3] is bronchospasms elicited by intravenous injections of 5-hydroxytryptamine. The data set can be described thus: Bronchodilator activity (Konzett assay, intravenous) against 5-hydroxytryptamine. Format: in vivo, guinea pigs. The note with it: Cavia porcellus, guinea pig, spasmogen 5-hydroxytryptamine, read-out: Bronchodilator Activity (Konzett Assays) ED50, 5-hydroxytryptamine. Here is the method:
as §1
(§3) In Table A which follows bronchodilator activity for representative compounds of this invention against one or more of three spasmogenic agents is expressed as an ED50 determined from the results obtained with three logarithmic cumulative intravenous doses.

Data set [4] has as its system bronchospasms elicited by intravenous injections of histamine. Kind of data set: Bronchodilator activity (Konzett assay, intravenous) against histamine. Format: in vivo, guinea pigs. As to conditions: Cavia porcellus, guinea pig, spasmogen histamine, read-out: Bronchodilator Activity (Konzett Assays) ED50, histamine. As to the method:
as §1, §3

Data set [5] has as its system bronchospasms elicited by intravenous injections of acetylcholine. The data set can be described thus: Bronchodilator activity (Konzett assay, intravenous) against acetylcholine. The note with it: Cavia porcellus, guinea pig, spasmogen acetylcholine, read-out: Bronchodilator Activity (Konzett Assays) ED50, acetylcholine. Format: in vivo, guinea pigs. As to the method: as §1, §3

For data set [6], the system named is bronchoconstriction induced by administration of pilocarpine. The data set can be described thus: Bronchodilator activity by aerosol in dogs. It is filed as in vivo. Here is the method: (§4) The novel ketals of this invention also show bronchodilator activity when administered by aerosol to dogs wherein bronchoconstriction was induced by administration of pilocarpine. […] This is very important since coughing is one of the damaging side effects reported in the literature when prostaglandin aerosols are administered to human subjects. [See Y. Kawakami et al., European Journal Clinical Pharmacology, 6, 127 (1973); M. F. Cuthbert, Brit. Med. Journ. 723 (Dec. 20, 1969); H. Herxheimer and I. Roetscher, European Journal Clinical Pharmacology, 3, 123 (1971).]

The test system of the next data set is cough. The data set can be described thus: Cough induction by aerosol in human. Format: in vivo. Here is the method: as §4
Data set [7] concerns basal gastric acid secretion. Kind of data set: Inhibition of total acid output in the acute gastric fistula rat. The note with it: intraduodenal route; for ED50: Rattus norvegicus, Table C. It is filed as in vivo, Female Sprague-Dawley rats. As to the method:
The compounds of this invention are also useful as inhibitors of gastric acid secretion and peptic ulcer formation and may be used for the treatment of gastric hyperacidity, gastric erosion, and peptic ulcer. Inhibition of basal gastric acid secretion can be determined by the following procedure.
Female Sprague-Dawley rats weighting 140-160 grams are fasted in individual cages for 18-24 hours. The rats are then lightly anesthetized with ether and their front teeth extracted to avoid destruction of the plastic cannula. A midline incision is then made and the stomach and duodenum exposed. A flanged polyvinyl tube is inserted into the fundic portion of the stomach and secured with a purse string suture line using 4-O Mersilene. The rat is then dosed by injection of the compound into the duodenum (1.0 ml. per 100 gram body weight). After dosing, the abdominal wall and skin are closed using metal wound clips. The rate is replaced in a cage containing a longitudinal slit to allow the polyvinyl tube to hang freely. An 8 ml. plastic collecting tube is attached to the flanged cannula and hangs freely below the cage. The first 30 minute sample is discarded designating this time as zero. The collecting tube is attached again and samples removed at the end of 60 and 120 minutes. These samples are referred to as "A" and "B" in the table. The hourly samples are then transferred to a 15 ml. centrifuge and centrifuged for 5-10 minutes. Total and sediment volume are then recorded with the supernatent volume being used as volume of secretion. A 1 ml. or less aliquot is then removed and placed in a 50 ml. beaker containing 10 ml. of distilled water. This sample is then titrated using 0.01N NaOH to pH 7.0 using a Beckman zeromatic pH meter. Volume, titratable acidity (meg.L) and total acid output (μeg/hour) are recorded. Percent inhibition is determined by comparison with the appropriate control. Groups of three rats were used for preliminary testing, and groups of six rats were used for dose-response evaluations. All compounds are administered in a vehicle consisting of 0.5% methocel, 0.4% tween 80, and saline at a constant volume of 1 ml./100 gram rat. Samples are dispersed by sonification. Percent inhibition is calculated on basis of concurrent vehicle control.
In Table B which follows is given the effect on total acid output after 120 minutes of a 10 mg./kg. dose of representative ketals of this invention. For comparison the result obtained with the corresponding 9-oxo derivative, l 9-oxo-15(S)-hydroxyprostanoic acid is included.
Dose response evaluation in the acute gastric fistual rat assay further illustrates the pronounced advantage of the novel ketals of this invention as gastric acid secretion inhibitors relative to the corresponding 9-oxo derivative.

`CCCCC[C@H](O)CC[C@H]1CCC2(OCCCO2)[C@@H]1CCCCCCC(=O)O` [l-15(S)-hydroxy-9,9-(propylenedioxy)-prostanoic acid]: the “Bronchodilator potency, Spasmogenic Agent 5-Hydroxytryptamine” value in data set [1] was “+”. For the same compound, the “Bronchodilator potency, Spasmogenic Agent Acetylcholine” value in data set [2] is recorded as “+”.

In the case of `CCCCC[C@H](O)CC[C@H]1CCC2(OCCO2)[C@@H]1CCCCCCC(=O)O` [l-9,9-(ethylenedioxy)-15(S)-hydroxy-prostanoic acid], the ED50 was 0.00253 mg/kg in data set [3]; 0.000376 mg/kg in data set [4]; 0.0274 mg/kg in data set [5]; 1 mg/kg in data set [7] (1 hr. collection, read-out: ED50, 1 hr. collection (A)); 2.3 mg/kg in data set [7] (2 hr. collection, read-out: ED50, 2 hr. collection (B)). In addition, the “bronchodilator activity by aerosol” value in data set [6] (aerosol concentration 0.032%) is given as “fully-present”. Also, the “potency of the ketal relative to the ketone” value in data set [6] (aerosol, versus l 9-oxo-15(S)-hydroxyprostanoic acid) is listed as “at least 10 times”. Further, the “induction of cough by aerosol” value in the data set with cough was “does not induce cough”. For the same compound, in data set [7] (2 h, 10 mg./kg., rat, read-out: %-Inhibition of Total Acid Output After 120 Minutes), the inhibition in vivo at 10 mg/kg came to 63%.

The ED50 is the dose at which the effect has come halfway, by size or by number of responders.
